“And” between values parts separate entries of the source, which are not always exact repeats. Equal entries are not always repeated.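 How tested: cells in 96-well plates exposed to compound for 48 hours at five concentrations. Abbreviation: GI50, concentration required for 50% inhibition of growth. At the TGI there is no net growth.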
Experiments:
Assay in all cases: NCI-60 cell line screen, 48 h
786-0 renal = tested on: 786-0 renal
A498 renal = tested on: A498 renal
HCC-2998 colon = tested on: HCC-2998 colon
LOX IMVI melanoma = tested on: LOX IMVI melanoma
RPMI-8226 leukemia = tested on: RPMI-8226 leukemia
RXF 393 renal = tested on: RXF 393 renal
SNB-19 CNS = tested on: SNB-19 CNS
UACC-62 melanoma = tested on: UACC-62 melanoma

| Structure (SMILES) | GI50 (786-0 renal) | TGI (786-0 renal) | GI50 (A498 renal) [µM] | TGI (A498 renal) | GI50 (HCC-2998 colon) [µM] | TGI (HCC-2998 colon) | GI50 (LOX IMVI melanoma) | TGI (LOX IMVI melanoma) | GI50 (RPMI-8226 leukemia) | TGI (RPMI-8226 leukemia) | GI50 (RXF 393 renal) [µM] | TGI (RXF 393 renal) | GI50 (SNB-19 CNS) | TGI (SNB-19 CNS) | GI50 (UACC-62 melanoma) [µM] | TGI (UACC-62 melanoma) |
| --- | --- | --- | --- | --- | --- | --- | --- | --- | --- | --- | --- | --- | --- | --- | --- | --- |
| C#CCOc1cccc(Nc2ncnc3c(NC(=O)C=C)cccc23)c1 | 19.1 µM | 52.7 µM | 24.4 | 64.4 µM | 17.7 | 33.9 µM | 15.7 µM | 46.4 µM | 8.46 µM | 47.2 µM | 13.3 | 39.7 µM | 39.5 µM | > 100 µM | 12.3 | 37.3 µM |
| Nc1cc(Br)c(-c2nnc(CCC(=O)c3nc4ccccc4[nH]3)o2)c(Br)c1 | 21 µM | 61.7 µM | 0.662 | 10.5 µM | 11 | 42.5 µM | 3.25 µM | 46.4 µM | 4.21 µM | > 100 µM | 13 | 58.7 µM | 20.1 µM | > 100 µM | 5.37 | > 100 µM |
| CC(C)[C@H](O)C(=O)N[C@@H](C)C(=O)N[C@@H]1C(=O)N(C)CCc2ccccc21 | > 100 µM | > 100 µM | > 100 | > 100 µM | > 100 | > 100 µM | > 100 µM | > 100 µM | > 100 µM | > 100 µM | > 100 | > 100 µM | > 100 µM | > 100 µM | > 100 | > 100 µM |
| CC(C)CC(C/C=C1/CC(CO)(COC(=O)C(C)(C)C)OC1=O)CC(C)C (centres undefined) | 1.72 µM and 7.83 µM | 17.7 µM and 26.3 µM |  | 21.7 µM and 22.2 µM |  | 5.37 µM and 6.13 µM | 12.3 µM and 1.76 µM | 27.9 µM and 21.9 µM | 17.1 µM and 3.85 µM | 54.5 µM and 21.2 µM |  | 43.8 µM and 32.9 µM |  | 23.4 µM and 18.5 µM |  | 28.8 µM and 24.1 µM |
| CCC(C)(O)c1cnc(CC(C)C)c(=O)n1O (centres undefined) |  | > 100 µM |  | > 100 µM |  | > 100 µM |  | > 100 µM |  | 28.5 µM |  | > 100 µM |  | > 100 µM |  | > 100 µM |
| NNCCc1ccc(NC(=O)CCCc2ccc(C(=O)Nc3ccccc3N)cc2)cc1 | 15.7 µM | > 100 µM | 6.54 | 28.5 µM | 18 | > 100 µM | 15.9 µM | > 100 µM | 3.18 µM | > 100 µM | 12.6 | 53.9 µM | 63.1 µM | > 100 µM | 3.79 | 31.8 µM |
| OC(c1cc(-c2ccc(C(F)(F)F)cc2)nc(C(F)(F)F)c1)C1CCCCN1 (centres undefined) | 1.57 µM | 3.16 µM and 3.48 µM | 1.47 | 2.82 µM and 6.07 µM | 0.53 | 1.76 µM and 3.07 µM |  | 3.13 µM and 3.07 µM | 0.418 µM | 2.04 µM and 5.07 µM |  | 3.15 µM | 1.53 µM and 5.66 µM | 2.92 µM and 13.5 µM |  | 3.02 µM and 3.51 µM |
| CCCCCCCCCCNC(=O)CI | 1.8 µM | 3.37 µM | 12.4 | 26.1 µM | 3.53 | 11.5 µM | < 0.0424 µM | 0.104 µM | 2.21 µM | 5.02 µM | 1.74 | 3.53 µM | 11.2 µM | 23.9 µM | 1.69 | 3.28 µM |
| CCCc1cc(=O)n2c(C(=O)Nc3ccc(Cl)cc3C)c(C(=O)Nc3ccc(F)cc3)sc2n1 | 2.36 µM | 5.96 µM | 29.2 | 99.8 µM | 96.6 | > 150 µM | 1.6 µM | 19.9 µM | 2.7 µM | 6.88 µM | 1.17 | 4.46 µM | 23.8 µM | 74.2 µM | 2.02 | 12.1 µM |
| COc1ccc(-c2nc(-c3cc(OC)cc(OC)c3)[nH]c2-c2ccc(OC)cc2)cc1 | > 100 µM | > 100 µM | > 100 | > 100 µM | 5.96 | > 100 µM |  |  | 2.49 µM | 6.96 µM | > 100 | > 100 µM | > 100 µM | > 100 µM | 4.75 | > 100 µM |
| CN(C)CCNCCN |  | > 100 µM |  | > 100 µM |  |  |  | > 100 µM |  | > 100 µM |  |  |  | > 100 µM |  | > 100 µM |
| O=C1CCCN1c1ccccc1I(=O)=O | > 100 µM | > 100 µM | > 100 | > 100 µM | > 100 | > 100 µM | > 100 µM | > 100 µM | > 100 µM | > 100 µM | > 100 | > 100 µM | > 100 µM | > 100 µM | > 100 | > 100 µM |
| O=C(/C=C/c1ccccc1)c1ccccc1 |  | > 10 µM |  | > 10 µM |  | > 10 µM |  | 4.11 µM |  | > 7.63 µM |  | > 10 µM |  | > 10 µM |  | > 10 µM |
| Cn1c(=O)c2c(nc(C(=N)SCC(=O)O)n2C)n(C)c1=O |  | > 100 µM |  | 66.7 µM |  |  |  | > 100 µM |  | > 100 µM |  | > 100 µM |  | > 100 µM |  | > 100 µM |
| COc1ccc(-c2nccn2-c2ccc(OC)cc2)cc1 | 21.9 µM | 60.6 µM | 14.4 | 55.9 µM | 16.4 | 33.7 µM | 32.2 µM | 97.9 µM | 13.4 µM | 36.6 µM | 17.9 | > 80.5 µM | 41.8 µM | > 100 µM | 13.9 | 48.9 µM |
| CCN(CC)CCCCCCNc1cccc2cc(Br)cnc12 | 3.39 µM | 11.1 µM | 4.28 | 21.3 µM | 3.84 | 15.4 µM | 2.64 µM | 8.07 µM | 3.81 µM | 15.5 µM | 4.52 | 15.1 µM | 5.77 µM | 22.6 µM | 2.07 | 4.7 µM |
| CC1CC(O)C(=O)C(O[C@@H]2C[C@@H]3CC[C@@H]4[C@H](CC[C@]5(C)C(C6=CC(=O)OC6)CC[C@]45O)[C@@]3(C=O)C[C@H]2O)O1 (some centres undefined) |  | 0.0341 µM |  | 0.232 µM |  | 0.243 µM |  | 0.0681 µM |  | 0.246 µM |  | 0.0506 µM |  | 0.0316 µM |  | 0.178 µM |

From PubChem BioAssay (NCI)
